We go through eleven molecules from ChEMBL document CHEMBL1201862, “PubChem BioAssay data set” (2004).

Among the test systems are UACC-257; RPMI-8226; HOP-92; HCT-15; UO-31; PC-3; Malme-3M; MOLT-4; NCI-H23; SN12C; TK-10; Hs-578T; HOP-62; MCF7; SW-620; OVCAR-3; LOX IMVI; RXF 393.
Assay in all cases: DTP human tumour cell line panel, 48 h

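Method: 48-hour compound exposure of cells in 96-well plates, five concentrations, linear interpolation of endpoints. At the GI50, growth is halved.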 Active and inactive are the calls of the source. Rule as the data show it: active = GI50 up to about 1.1 µM and inactive = higher. Non-standard residues stand in square brackets, D forms with d. Residues, ends and D or L forms follow the SMILES beside them.

By GI50 is commonly meant the concentration at which growth is held to half of that of the control. In the case of `Nc1nc(Cl)cc(NCC2(CO)CC(O)C2)n1` (centres undefined), the GI50 with UACC-257 was > 100 µM (inactive); in the test on RPMI-8226, > 100 µM (inactive); in the test on HOP-92, > 100 µM (inactive); with HCT-15, over 100 µM; with UO-31, > 100 µM (inactive); in the test with PC-3, > 100 µM (inactive). Further, the GI50 with Malme-3M, in the test on MOLT-4, with NCI-H23, in the test with SN12C, in the test with TK-10 and in the test with Hs-578T was > 100 µM (inactive) throughout. Moreover, the GI50 with HOP-62, in the test with MCF7, with SW-620, in the test on OVCAR-3, in the test on LOX IMVI and in the test on RXF 393 was > 100 µM (inactive) throughout.
For `O=C1NCC2(CCNCC2)N1c1ccccc1`, the GI50 was > 100 µM (inactive) in the test with UACC-257; > 100 µM (inactive) in the test with RPMI-8226; > 100 µM (inactive) with HOP-92; over 100 µM with HCT-15; > 100 µM (inactive) with PC-3; > 100 µM (inactive) with Malme-3M. Further, the GI50 in the test on MOLT-4, with NCI-H23, in the test with SN12C, in the test on TK-10, in the test on Hs-578T and with HOP-62 was > 100 µM (inactive) in each case. For the same molecule, the GI50 with MCF7, with SW-620, in the test with OVCAR-3, in the test with LOX IMVI and in the test on RXF 393 was > 100 µM (inactive) in each case.
Regarding `O=C(c1ccc(Cl)cc1Cl)N(Cc1cccnc1)C(=S)N(Cc1cccnc1)C(=O)c1ccc(Cl)cc1Cl`, the GI50 was 6.32 µM (inactive) with UACC-257; 0.678 µM (active) in the test with RPMI-8226; 3.83 µM (inactive) with HOP-92; 3.12 µM with HCT-15; 4.26 µM (inactive) in the test with UO-31; 2.4 µM (inactive) in the test on PC-3. The GI50 in the test on Malme-3M was 16.4 µM (inactive); with MOLT-4 it was 4.06 µM (inactive); with NCI-H23, 12.2 µM (inactive); in the test with SN12C, 4.68 µM (inactive); in the test with TK-10, 3.77 µM (inactive); with Hs-578T, 21 µM (inactive). In addition, the GI50 was 2.37 µM (inactive) in the test on HOP-62; 2.58 µM (inactive) with MCF7; 3.68 µM (inactive) with SW-620; 2.67 µM (inactive) with OVCAR-3; 3.64 µM (inactive) with LOX IMVI; 6.43 µM (inactive) with RXF 393.
In the case of `C[n+]1c(-c2ccc(/C=C/C=N\NC(=O)c3ccc(C(=O)N/N=C\C=C\c4ccc(-c5cn6ccccc6[n+]5C)cc4)cc3)cc2)cn2ccccc21`, the GI50 was > 100 µM (inactive) with UACC-257; 38.1 µM (inactive) with RPMI-8226; > 100 µM (inactive) in the test with HOP-92; over 100 µM in the test with HCT-15; > 100 µM (inactive) in the test on UO-31; > 100 µM (inactive) in the test on PC-3. In addition, the GI50 with Malme-3M was > 100 µM (inactive); with MOLT-4, 43.6 µM (inactive); in the test with NCI-H23, 71.4 µM (inactive); in the test with SN12C it was > 100 µM (inactive); in the test on TK-10, > 86.3 µM (inactive); with Hs-578T, > 100 µM (inactive). The GI50 was > 100 µM (inactive) in the test on HOP-62; > 94.8 µM (inactive) in the test on MCF7; > 100 µM (inactive) in the test on SW-620; > 64 µM (inactive) in the test with OVCAR-3; > 68.7 µM (inactive) in the test on LOX IMVI; > 96.2 µM (inactive) with RXF 393.
In the case of `CCOC(=O)N1CCC(=C2c3ccc(Cl)cc3CCc3cccnc32)CC1` [LORATADINE], the GI50 in the test on UACC-257 is 15 µM (inactive); in the test with RPMI-8226, 3.83 µM (inactive); in the test on HOP-92, 10 µM (inactive); with HCT-15, 7.55 µM; in the test with UO-31 it was 1.64 µM (inactive); with PC-3, 10.4 µM (inactive). In addition, the GI50 with Malme-3M is 5.94 µM (inactive); in the test with MOLT-4, 4.23 µM (inactive); in the test with NCI-H23, 15.8 µM (inactive); with SN12C, 10.2 µM (inactive); in the test on TK-10 it was 13.2 µM (inactive); in the test with Hs-578T, 26.9 µM (inactive). Also, the GI50 in the test on HOP-62 was 15.2 µM (inactive); with MCF7, 7.4 µM (inactive); in the test on SW-620, 11.8 µM (inactive); in the test on OVCAR-3, 7.78 µM (inactive); with LOX IMVI, 10.9 µM (inactive); in the test with RXF 393, 6.71 µM (inactive).
For `CN(C)c1ccc(C=c2c3ccccc3n3c2c2c([n+]3C)CCCC2)cc1`, the GI50 in the test on UACC-257 was 0.301 µM (active); in the test on RPMI-8226, 0.0352 µM (active); in the test with HOP-92 it was 0.046 µM (active); in the test on HCT-15 it was 1.87 µM; in the test with UO-31, 1.12 µM (inactive); in the test with PC-3, 0.219 µM (active). Besides, the 50% growth inhibitory concentration (GI50) was 0.17 µM (active) with Malme-3M; 0.116 µM (active) in the test on MOLT-4; 0.269 µM (active) with NCI-H23; 0.146 µM (active) in the test with SN12C; 0.207 µM (active) in the test with TK-10; 0.351 µM (active) in the test with Hs-578T. In addition, the GI50 was 0.165 µM (active) in the test on HOP-62; 0.0491 µM (active) with MCF7; 0.118 µM (active) in the test on SW-620; 0.152 µM (active) in the test on OVCAR-3; 0.143 µM (active) in the test on LOX IMVI; 0.106 µM (active) with RXF 393.
As for `COC(=O)C1=C(C)NC(C)=C([N+](=O)[O-])C1c1cccc(N=O)c1` (centres undefined), the GI50 in the test on UACC-257 was 12.5 µM (inactive); in the test with RPMI-8226 it was 4.29 µM (inactive); with HOP-92 it was 2.83 µM (inactive); in the test on HCT-15, 14.2 µM; with UO-31, 12.1 µM (inactive); in the test with PC-3 it was 17.9 µM (inactive). In addition, the GI50 in the test on Malme-3M is 12.5 µM (inactive); in the test on MOLT-4, 3.18 µM (inactive); in the test on NCI-H23 it was 18.5 µM (inactive); with SN12C it was 19.7 µM (inactive); in the test on TK-10 it was 12.8 µM (inactive); in the test with Hs-578T, 15.2 µM (inactive). For the same molecule, the GI50 was 19.2 µM (inactive) in the test on HOP-62; 17.4 µM (inactive) with MCF7; 3.58 µM (inactive) with SW-620; 15 µM (inactive) in the test on OVCAR-3; 16.1 µM (inactive) in the test on LOX IMVI; 13.8 µM (inactive) with RXF 393.
For `[N-]=[N+]=NC1(N=[N+]=[N-])C(=O)NN=C(c2ccccc2)C1=O` (centres undefined), the GI50 with UACC-257 was 97.5 µM (inactive); in the test with RPMI-8226, 41.3 µM (inactive); in the test with HOP-92, > 100 µM (inactive); in the test on HCT-15, over 100 µM; in the test on UO-31, > 100 µM (inactive); with PC-3, > 100 µM (inactive). The GI50 with Malme-3M is 7.18 µM (inactive); with MOLT-4 it was 28.8 µM (inactive); with NCI-H23, > 100 µM (inactive); with SN12C, > 100 µM (inactive); in the test on TK-10, > 100 µM (inactive); with Hs-578T, > 100 µM (inactive). For the same molecule, the GI50 was > 100 µM (inactive) in the test with HOP-62; 62.7 µM (inactive) in the test with MCF7; 50.9 µM (inactive) in the test on SW-620; 68.4 µM (inactive) with OVCAR-3; 37.7 µM (inactive) in the test with LOX IMVI; 45.5 µM (inactive) in the test on RXF 393.
On to `CCOc1cnc(C(O)(c2ccccc2)c2ccccc2)o1`, for which the GI50 was > 100 µM (inactive) with UACC-257; > 100 µM (inactive) with RPMI-8226; 58.9 µM (inactive) with HOP-92; 77.1 µM in the test on HCT-15; > 100 µM (inactive) in the test on UO-31; > 100 µM (inactive) in the test with PC-3. Besides, the GI50 in the test with Malme-3M, in the test on MOLT-4, in the test on NCI-H23, with SN12C, in the test on Hs-578T and with HOP-62 was > 100 µM (inactive) in each case. Moreover, the GI50 in the test with MCF7 is > 100 µM (inactive); in the test on SW-620 it was > 100 µM (inactive); in the test with OVCAR-3, > 100 µM (inactive); with LOX IMVI it was 69.7 µM (inactive); with RXF 393, > 100 µM (inactive).
As to `CC(C)=CCNc1ncnc2c1ncn2CCC#N`, the GI50 was > 100 µM (inactive) in the test on RPMI-8226; > 100 µM (inactive) in the test with HOP-92; over 100 µM in the test on HCT-15; > 100 µM (inactive) in the test with UO-31; > 100 µM (inactive) in the test on PC-3; > 100 µM (inactive) in the test with Malme-3M. Moreover, the GI50 in the test on MOLT-4, with NCI-H23, in the test with SN12C, in the test with TK-10, in the test with Hs-578T and in the test with HOP-62 was > 100 µM (inactive) each time. Moreover, the GI50 was > 100 µM (inactive) with MCF7; > 100 µM (inactive) in the test with SW-620; > 100 µM (inactive) with OVCAR-3; > 100 µM (inactive) with LOX IMVI; 2.21 µM (inactive) in the test with RXF 393.
As for `CSCC[C@H](NC(=O)[C@@H](N)CC(N)=O)C(=O)N[C@@H](Cc1c[nH]c2ccccc12)C(=O)N[C@@H](CCC(N)=O)C(=O)N[C@@H](CCC(=O)O)C(=O)N[C@H](C(=O)NCC(=O)N[C@@H](CCCCN)C(=O)N[C@H](C)C(=O)O)C(C)C` (H-NMWQEVGK[dA]-OH), the GI50 in the test on UACC-257 is > 100 µM (inactive); with RPMI-8226, > 100 µM (inactive); in the test with HOP-92, > 100 µM (inactive); in the test on HCT-15, over 100 µM; in the test on PC-3 it was > 100 µM (inactive); with Malme-3M it was > 100 µM (inactive). The GI50 in the test with MOLT-4, in the test on NCI-H23, in the test on SN12C, with TK-10, in the test on Hs-578T and in the test with HOP-62 was > 100 µM (inactive) in each case. Also, the GI50 in the test on MCF7, in the test on SW-620, in the test on OVCAR-3, in the test with LOX IMVI and with RXF 393 was > 100 µM (inactive) throughout.
